According to patent US8680290B2, “Isoxazoline derivatives and their use as herbicides” (Syngenta Limited, priority 2004, dated 2014):

System: Monocotyledonous and dicotyledonous test plants
Assay: Example B1 herbicidal action, application pre-emergence (Table B1b)
Format: in vivo
Settings: 250 g/ha, evaluated after 4 weeks
Experimental: Monocotyledonous and dicotyledonous test plants were sown in seed trays in standard soil. Immediately after sowing (pre-emergence) or after 8 to 9 days cultivation (post-emergence), the test compounds were applied by spraying in the form of an aqueous solution derived from the formulation of the technical active ingredient in 0.6 ml acetone and 45 ml formulation solution containing 10.6% Emulsogen EL (CAS RN 61791-12-6), 42.2% N-methylpyrrolidone, 42.2% dipropylene glycol monomethyl ether (CAS RN 34590-94-8) and 0.2% X-77 (CAS RN 11097-66-8). The test plants were then grown in a greenhouse under optimum conditions. After a test duration of 3 weeks (post-emergence) or 4 weeks (pre-emergence), the test was evaluated (10=total damage to plant, 0=no damage to plant).

Row | SMILES | herbicidal action (damage rating 0-10), Amaranthus | herbicidal action (damage rating 0-10), Digitaria | herbicidal action (damage rating 0-10), Panicum | herbicidal action (damage rating 0-10), Setaria | herbicidal action (damage rating 0-10), Sida
1 | CC1(C)CC(S(=O)(=O)C(F)(Cl)c2ccccc2F)=NO1 (racemic) [1.73] | 10 | 10 | 10 | 10 | 8
2 | CC1(C)CC(S(=O)(=O)C(Br)c2ccccc2OC(F)F)=NO1 (racemic) [1.78] | 10 | 10 | 10 | 10 | 2
3 | CC1(C)CC(S(=O)(=O)C(Br)c2ccccc2)=NO1 (racemic) [1.81] | 9 | 6 | 8 | 5 | 0
4 | CC1(C)CC(S(=O)(=O)C(Br)c2ccccc2F)=NO1 (racemic) [1.82] | 10 | 9 | 10 | 9 | 0
5 | COc1cc(OC)cc(C(Br)S(=O)(=O)C2=NOC(C)(C)C2)c1 (racemic) [1.84] | 10 | 9 | 10 | 9 | 0
6 | CC1(C)CC(S(=O)(=O)C(Cl)c2c(F)cccc2C(F)(F)F)=NO1 (racemic) [1.91] | 3 | 10 | – | 9 | 10
7 | CC1(C)CC(S(=O)(=O)C(Cn2ccnc2)c2c(F)cccc2F)=NO1 (racemic) [Compound No. 1.87] | 3 | 7 | 5 | 7 | 0
8 | CC1(C)CC(S(=O)(=O)C(Cn2cncn2)c2c(F)cccc2F)=NO1 (racemic) [Compound No. 1.90] | 4 | 4 | 0 | 0 | 5
9 | CC1(C)CC([S+]([O-])C(Cl)c2c(F)cccc2Cl)=NO1 (single isomer, unassigned) [1.33] | 0 | 8 | 10 | 7 | 0
10 | CCC(Cl)(c1c(F)cccc1F)S(=O)(=O)C1=NOC(C)(C)C1 (stereo not drawn) [1.16] | 0 | 4 | 5 | 4 | 0
11 | CC1(C)CC(S(=O)(=O)C(Br)(Br)c2c(F)cccc2F)=NO1 [1.50] | 10 | 9 | 10 | 10 | 7
12 | COc1ccccc1C(Br)S(=O)(=O)C1=NOC(C)(C)C1 (stereo not drawn) [1.101] | 9 | 8 | 8 | 8 | 0
13 | CC1(C)CC(S(=O)(=O)C(Br)c2cc(F)cc3c2OCOC3)=NO1 (stereo not drawn) [1.103] | 3 | 9 | 9 | 5 | 0
14 | CC1(C)CC(S(=O)(=O)C(F)c2cc(F)cc3c2OCOC3)=NO1 (stereo not drawn) [1.106] | 3 | 7 | 8 | 6 | 0
15 | CC1(C)CC(S(=O)(=O)C(Br)c2cc(F)cc(F)c2)=NO1 (stereo not drawn) [1.134] | 5 | 10 | 10 | 9 | 0
16 | CC1(C)CC(S(=O)(=O)C(Br)c2cc(F)ccc2F)=NO1 (stereo not drawn) [1.135] | 7 | 10 | 10 | 9 | 0
17 | CC1(C)CC([S+]([O-])C(c2c(F)cccc2F)C(F)(F)F)=NO1 (stereo not drawn) [1.139] | 0 | 8 | 0 | 7 | 0
18 | COc1ccccc1C(Cl)S(=O)(=O)C1=NOC(C)(C)C1 (stereo not drawn) [1.141] | 5 | 9 | 9 | 9 | 0
19 | Cc1ccc(F)c(C(Cl)S(=O)(=O)C2=NOC(C)(C)C2)c1F (stereo not drawn) [1.145] | 10 | 10 | 10 | 10 | 7
20 | CC1(C)CC(S(=O)(=O)C(Br)c2ccc(F)cc2F)=NO1 (stereo not drawn) [1.150] | 6 | 10 | 10 | 9 | 0
